Results on 16 molecules are retold here after patent publication US20230227466A1, “SUBSTITUTED THIENOPYRIMIDINES THAT INTERACT WITH THE RAS SUPERFAMILY FOR THE TREATMENT OF CANCERS, INFLAMMATORY DISEASES, RASOPATHIES, AND FIBROTIC DISEASE” (SHY Therapeutics, LLC, priority 2020, published 2023).

The subject of experiment [1] is Akt phosphorylation in Panc-1 cells. The experiment can be described thus: Western AKT cell-based phosphorylation assay. Set-up: species or system human. The following applies: at 10 μM, values in brackets < > are activation %, not inhibition. On the procedure:
Human Tumor-Derived Pancreatic Cancer Cell Line Panc-1 was Purchased from
American Type Culture Collection and grown in complete DMEM-High Glucose supplemented with penicillin (100 U/mL), streptomycin (100 μg/mL), and 10% heat-inactivated FBS at 37° C. in a humidified incubator with 5% CO2.
Method: Cells were plated at 350000 cells/well density in a 12-well plate, allowed 3 hours to adhere to the plate, then starved in the appropriate medium in the presence of 0.5% FBS overnight. The small molecules to be tested were added to the cells in the final concentration of 10 μM in the presence of 0.3% DMSO for 6 hours incubation at 37° C. Next, cells were stimulated with 1.5 ng/ml EGF for 15 minutes then cells were lysed with lysis buffer containing 1% Triton X-100, EDTA, and Halt™ Protease & Phosphatase Inhibitor Cocktail (Thermo Scientific). Protein concentration was assessed by BCA protein assay (Thermo Scientific). Phosphorylation level of Akt was determined by western blot.
Western blot protocol: Equal amounts of protein (15-50 μg) were separated by SDS-PAGE and transferred to nitrocellulose membranes (Invitrogen by Thermo Fisher Scientific). The membrane was stained with Ponceau S Stain (Boston BioProducts) to verify uniform protein loading. Membranes were blocked with 10% milk and phosphorylation levels of Akt were assessed by incubating overnight at 4° C. with anti-phospho-Akt (Ser473) antibody (Cell Signaling) followed by HRP-conjugated secondary antibody (Jackson Immunoresearch, West Grove, Pa.). Bands were incubated in Amersham ECL Prime Western Blotting Detection Reagent (GE Healthcare) and visualized using the ChemiDoc MP imaging system (Bio-Rad).

The subject of experiment [2] is MIA-PaCa-2 pancreatic cancer cell line (KRAS G12C). The experiment is described as follows: Cell proliferation assay (CellTiter 96 Aqueous One). Format: cell-based. The following applies: Homo sapiens; for IC50: MIA PaCa-2, MIA PaCa-2; for inhibition at 10 µM: MIA PaCa-2, read-out: % inh cell proliferation (10 μM) in MIA PaCa-2. On the procedure: Cell lines: Human tumor-derived cell lines were purchased from American Type Culture Collection. Human tumor-derived pancreatic cancer cell line MIA-PACA2 (having a KRAS G12C mutation) and Panc-1 (having a KRAS G12D mutation), and Human non-small cell lung cancer (NSCLC) cell line A549 (having a KRAS G12S mutation) were grown in complete DMEM-High Glucose. Human colon cancer cell line SW-620 (having a KRAS G12V mutation) was grown in RPMI. All cell lines were supplemented with penicillin (100 U/mL), streptomycin (100 μg/mL), and 10% heat-inactivated FBS at 37° C. in a humidified incubator with 5% CO2.
Method: Cells were plated at 2000 to 5000 cells/well density in 96-wells plate and cultured overnight. Small molecules to be tested were added to the cells in the final concentration of 10 μM in the presence of 0.3% DMSO and 10% FBS, and incubated for 2-4 days at 37° C. in a humidified incubator with 5% CO2. For IC50 value determination, serial dilutions of compounds were added to cells under the same conditions.
Assay: At the end of the incubation period, cell viability was measured using the CellTiter 96® Aqueous One Solution Cell Proliferation Assay according to manufacturer specifications (Promega, Madison, Wis.). The percentage of small molecules inhibition of cellular proliferation was calculated from raw data.

For the molecule `COCC1CCN(c2nc(-c3ccccn3)nc3sc(-c4ccn(C(C)C)n4)c(C)c23)C1` (racemic) [Compound 71, Rac-6-(1-Isopropyl-1H-pyrazol-3-yl)-4-(3-(methoxymethyl)pyrrolidin-1-yl)-5-methyl-2-(pyridin-2-yl)thieno[2,3-d]pyrimidine], the “% inh of AKT phosphorylation in PANC-1” value in experiment [1] is on record as “D (76-100% inhibition)”. In experiment [2], the IC50 (as a rule, the concentration that inhibits the measured activity by half) lay in the range of 5 to 10 µM and the inhibition at 10 µM fell in the range of 76 to 100%.
For `CO[C@H]1C[C@@H](CNc2nc(-c3nccn3C)nc3sc(-c4ccn(C(C)C)n4)c(C)c23)C1` [Compound 47, 6-(1-Isopropyl-1H-pyrazol-3-yl)-N-(((1s,3s)-3-methoxycyclobutyl)methyl)-5-methyl-2-(1-methyl-1H-imidazol-2-yl)thieno[2,3-d]pyrimidin-4-amine], the “% inh of AKT phosphorylation in PANC-1” value in experiment [1] is 0 (0% inhibition). In experiment [2], the IC50 is < 1 µM and the inhibition at 10 µM lay within 76 to 100%.
For `CO[C@H]1CN(c2nc(-c3nccn3C)nc3sc(-c4ccn(C(C)C)n4)c(C)c23)C[C@H]1OC` [Compound 39, rac-4-((3S,4R)-3,4-Dimethoxypyrrolidin-1-yl)-6-(1-isopropyl-1H-pyrazol-3-yl)-5-methyl-2-(1-methyl-1H-imidazol-2-yl)thieno[2,3-d]pyrimidine], in experiment [1], the “% inh of AKT phosphorylation in PANC-1” value is given as “<B>”. Besides, in experiment [2], the IC50 is 5 to 10 µM and the inhibition at 10 µM lay in the range of 76 to 100%.
As for `COc1cc(Nc2nc(-c3nccn3C)nc3sc(-c4ccn(C(C)C)n4)c(C)c23)ccn1` [Compound 67, 6-(1-Isopropyl-1H-pyrazol-3-yl)-N-(2-methoxypyridin-4-yl)-5-methyl-2-(1-methyl-1H-imidazol-2-yl)thieno[2,3-d]pyrimidin-4-amine], in experiment [1], the “% inh of AKT phosphorylation in PANC-1” value was “<A>”. Besides, in experiment [2], the IC50 was in the range of 5 to 10 µM and the inhibition at 10 µM lay in the range of 76 to 100%.
For `COCC1COCCN1c1nc(-c2nccn2C)nc2sc(-c3ccn(C(C)C)n3)c(C)c12` (racemic) [Compound 41, rac-4-(6-(1-Isopropyl-1H-pyrazol-3-yl)-5-methyl-2-(1-methyl-1H-imidazol-2-yl)thieno[2,3-d]pyrimidin-4-yl)-3-(methoxymethyl)morpholine], in experiment [1], the “% inh of AKT phosphorylation in PANC-1” value is on record as 0 (0% inhibition). Further, in experiment [2], the IC50 was 5 to 10 µM and the inhibition at 10 µM lay in the range of 51 to 75%.
For `COCCNC(=O)c1nc(N[C@@H]2CC[C@H](OC)C2)c2ccsc2n1` (racemic) [Compound 14, rac-4-(((1R,3S)-3-Methoxycyclopentyl)amino)-N-(2-methoxyethyl)thieno[2,3-d]pyrimidine-2-carboxamide], the “% inh of AKT phosphorylation in PANC-1” value in experiment [1] was 0 (0% inhibition). Besides, in experiment [2], the IC50 was > 10 µM and the inhibition at 10 µM stood at 0%.
For the molecule `CO[C@H]1CC[C@H](Nc2nc(-c3nccn3C)nc3sc(-c4ccn(C(C)C)n4)c(C)c23)CC1` [Compound 54], the “% inh of AKT phosphorylation in PANC-1” value in experiment [1] is “<A>”. Further, in experiment [2], the IC50 is < 1 µM and the inhibition at 10 µM was 76 to 100%.
For `Cc1c(-c2ccn(C(C)C)n2)sc2nc(-c3nccn3C)nc(NCCc3ncc[nH]3)c12` [Compound 53, N-(2-(1H-Imidazol-2-yl)ethyl)-6-(1-isopropyl-1H-pyrazol-3-yl)-5-methyl-2-(1-methyl-1H-imidazol-2-yl)thieno[2,3-d]pyrimidin-4-amine], the “% inh of AKT phosphorylation in PANC-1” value in experiment [1] was 0 (0% inhibition). Also, in experiment [2], the IC50 fell in the range of 5 to 10 µM and the inhibition at 10 µM lay within 76 to 100%.
In the same order, the values of `CO[C@H]1CC[C@@H](Nc2nc(C(=O)NC(C)C)nc3sccc23)C1` (racemic) [Compound 13, Rac-N-isopropyl-4-(((1R,3S)-3-methoxycyclopentyl)amino)thieno[2,3-d]pyrimidine-2-carboxamide] are 0 (0% inhibition), > 10 µM and 0%.
For `CO[C@H]1CC[C@@H](Nc2nc(C(=O)N3CCCC3)nc3sccc23)C1` (racemic) [Compound 25, Rac-(4-(((1R,3S)-3-Methoxycyclopentyl)amino)thieno[2,3-d]pyrimidin-2-yl)(pyrrolidin-1-yl)methanone], in experiment [1], the “% inh of AKT phosphorylation in PANC-1” value is 0 (0% inhibition). For the same molecule, in experiment [2], the IC50 is > 10 µM and the inhibition at 10 µM is 1 to 25%.
As to `CO[C@H]1C[C@H](CNc2nc(-c3nccn3C)nc3sc(-c4ccn(C(C)C)n4)c(C)c23)C1` [Compound 48, 6-(1-Isopropyl-1H-pyrazol-3-yl)-N-(((1r,3r)-3-methoxycyclobutyl)methyl)-5-methyl-2-(1-methyl-1H-imidazol-2-yl)thieno[2,3-d]pyrimidin-4-amine], the “% inh of AKT phosphorylation in PANC-1” value in experiment [1] is 0 (0% inhibition). Besides, in experiment [2], the IC50 was < 1 µM and the inhibition at 10 µM is 76 to 100%.
Consider `Cc1c(-c2ccn(C(C)C)n2)sc2nc(-c3nccn3C)nc(NCc3n[nH]c(=O)n3C)c12` [Compound 60, 5-(((6-(1-Isopropyl-1H-pyrazol-3-yl)-5-methyl-2-(1-methyl-1H-imidazol-2-yl)thieno[2,3-d]pyrimidin-4-yl)amino)methyl)-4-methyl-2,4-dihydro-3H-1,2,4-triazol-3-one], for which the “% inh of AKT phosphorylation in PANC-1” value in experiment [1] is 0 (0% inhibition). Moreover, in experiment [2], the IC50 was > 10 µM and the inhibition at 10 µM lay within 1 to 25%.
Take `Cc1c(-c2ccn(C(C)C)n2)sc2nc(-c3nccn3C)nc(NCCc3nnn[nH]3)c12` [Compound 46, N-(2-(1H-Tetrazol-5-yl)ethyl)-6-(1-isopropyl-1H-pyrazol-3-yl)-5-methyl-2-(1-methyl-1H-imidazol-2-yl)thieno[2,3-d]pyrimidin-4-amine]: in experiment [1], the “% inh of AKT phosphorylation in PANC-1” value is “A (1-25% inhibition)”. Also, in experiment [2], the IC50 is > 10 µM and the inhibition at 10 µM is 1 to 25%.
In the case of `COCCn1ccnc1-c1nc(N[C@H]2C[C@@H](OC)C2)c2c(-c3ccccc3)c(-c3ccn(C)n3)sc2n1` [Compound 7, N-((1s,3s)-3-Methoxycyclobutyl)-2-(1-(2-methoxyethyl)-1H-imidazol-2-yl)-6-(1-methyl-1H-pyrazol-3-yl)-5-phenylthieno[2,3-d]pyrimidin-4-amine], the “% inh of AKT phosphorylation in PANC-1” value in experiment [1] is recorded as 0 (0% inhibition). In addition, in experiment [2], the IC50 was 1 to 4.99 µM and the inhibition at 10 µM lay in the range of 76 to 100%.
In the same order, the values of `CO[C@H]1CC[C@@H](Nc2nc(-c3nccn3C)nc3sc(-c4ccn(C(C)C)n4)c(-c4ccccc4)c23)C1` [Compound 5, 6-(1-Isopropyl-1H-pyrazol-3-yl)-N-((1R,3S)-3-methoxycyclopentyl)-2-(1-methyl-1H-imidazol-2-yl)-5-phenylthieno[2,3-d]pyrimidin-4-amine] are “D (76-100% inhibition)”, < 1 µM and 76 to 100%.
Regarding `COc1cccn2c(-c3nc(O)c4scc(-c5ccccn5)c4n3)ncc12` [Compound 84, 2-(8-Methoxyimidazo[1,5-a]pyridin-3-yl)-7-(pyridin-2-yl)thieno[3,2-d]pyrimidin-4-ol], the “% inh of AKT phosphorylation in PANC-1” value in experiment [1] was “A (1-25% inhibition)”. In addition, in experiment [2], the IC50 was in the range of 5 to 10 µM and the inhibition at 10 µM was in the range of 51 to 75%.
